What was measured:
CD28 [1] = test: CD28 surface expression by flow cytometry after anti-CD3 stimulation; format: cell-based, human; conditions: anti-CD3 alone, 72 hours
Experimental: Stimulation followed by measurement of CD28 surface expression was performed using anti-CD3 (10 μg/ml) alone or anti-CD3 (10 μg/ml) plus anti-CD28 (10 μg/ml) coupled 4.5 micron polystyrene polybeads (Polysciences, Inc, Warrington, Pa. USA). 1×10^5 beads were added to 2×10^5 cells in u-bottom 96-well plates, as previously described (Viola A, et al. Science 1999 283(5402):680-2). Cells were collected at 72 hours and 5 days, and CD28 surface expression was measured via flow cytometry on LSRII flow cytometer (BD Biosciences, San Jose, Calif. USA).

CD28^+ T-cells = test: IL-2 ELISA after CD28 siRNA knockdown; format: cell-based, human; conditions: average
Experimental: (§1) For siRNA knockdown (KD), T-cells were transfected with siCD28 or control siRNA (Santa Cruz Biotechnology, Inc, Santa Cruz, Calif. USA) using Amaxa Nucleofection technology (Lonza, Basel, Switzerland). 10×10^6 purified T-cells were mixed with either control or CD28 siRNA in 100 μl Human T-cell nucleofection solution, nucleofected, and then placed in Lymphocye Media (Lonza Basel, Switzerland). Cells were rested 24 hours before being stimulated with either plate bound anti-CD3, or anti-CD3^+CD28, antibodies in the presence or absence of LEN. CD28 surface expression was measured via flow cytometry at 48 and 72 hours after stimulation, at the same time supernatant was collected for ELISA analysis. Supernatant from stimulation experiments was frozen at −80° C. for analysis via Human IL-2 ELISA kit (eBioscience, San Diego, Calif. USA).

murine T-cells = test: IL-2 production by ELISA in murine T-cells; format: cell-based, B57BL6 mice
Description: (§2) Peripheral blood from buffy coats of healthy donors was obtained from the Southwest Florida Blood Services, St. Petersburg, Fla., for use as controls and for the purification of T-cells. T-cells were isolated from the buffy coats using RosetteSep® Human CD3^+ T-cell Enrichment Cocktail (StemCell Technologies, Vancouver, BC Canada) according to the manufacturer's protocol. B57BL6 mice were maintained at an animal facility in accordance with the University of South Florida Committee on Animal Care. All mice were adult age 8-12 weeks, obtained from The Jackson Laboratory, and maintained in a pathogen-free environment at Moffitt Cancer Center. Mouse-specific antibodies for T-cell activation were purchased from eBioscience (San Diego, Calif.) and human-specific antibodies were purchased from BD Biosciences (San Jose, Calif. USA). To activate the T-cell receptor (TCR), T-cells were stimulated with plate-bound anti-CD3 antibody (1 μg/ml or indicated concentration) coated onto flat-bottomed polystyrene tissue culture plates overnight at 4° C. Purified T-cells (1×10^6/ml) were added to the coated 96-well plates in a 200 μl volume for 48 hours at 37° C. In some instances, 1.0 μg/ml anti-CD28 was added for co-stimulation.
(§3) Lenalidomide (Revlimid®) was provided by Celgene Corporation (Warren, N.J.). […] An equal volume of DMSO was used as a vehicle control.

[2] = Storage of DMSO stock solutions; format: physicochemical; conditions: −20° C.
Description: as §3

IL-2 gene = test: IL-2 mRNA expression by RT-qPCR; format: cell-based, human; conditions: anti-CD3 alone without anti-CD28, 18 hours
Description: as §2, with “To activate the T-cell receptor (TCR), T-cells were stimulated with plate-bound anti-CD3 antibody (1 μg/ml or indicated concentration) coated onto flat-bottomed polystyrene tissue culture plates overnight at 4° C. Purified T-cells (1×10^6/ml) were added to the coated 96-well plates in a 200 μl volume for 48 hours at 37° C. In some instances, 1.0 μg/ml anti-CD28 was added for co-stimulation.” left out
(§4) Total RNA was extracted from purified T-cells using the RNeasy Mini Kit (Qiagen, Chatsworth, Calif. USA). […] Relative target gene expression was measured by qRT-PCR using 18S rRNA expression as a reference gene. Expression levels of target mRNA and 18S rRNA were evaluated with Taqman Probes obtained from Applied Biosystems (Carlsbad, Calif.). All samples for both target genes (IL-2 or CD28) and 18S rRNA were measured in triplicate. Relative mRNA expression level for each sample was calculated using the ΔΔCt method (Pfaffl M W. Nucleic Acids Res 2001 May 1; 29(9):e45).

CD8^+CD28^− T-cells = test: IL-2 ELISA of sorted CD8^+CD28^− T-cells; format: cell-based, human; conditions: anti-CD3 stimulation, 3 days, 10 μM LEN
Description: (§5) T-cells were purified from healthy donor buffy coats as previously described, and were stained with 4′,6-diamidino-2-phenylindole (DAPI) for viability, anti-CD8-APC-Cy7, CD4-PerCP-Cy5.5, and CD28-FITC antibodies (BD Pharmingen, San Jose, Calif.). Cells were then sorted into CD8^+CD28^+, CD8^+CD28^− populations via FACS Aria Cell Sorter (BD Pharmingen, San Jose, Calif.).
as §1

CD28 [3] = test: CD28 mRNA expression by RT-qPCR; format: cell-based, human; conditions: anti-CD3 stimulation, 18 or 24 hours
Experimental: as §4

CD28 [4] = test: Western blot for total CD28 protein expression; format: cell-based, human; conditions: anti-CD3 activation for 1, 2, 4, 8, 12, and 48 hours
purified human T-cells [5] = test: IL-2 production by ELISA in stimulated T-cells; format: cell-based
Description: as §2, §3
as §1, with “Supernatant from stimulation experiments was frozen at −80° C. for analysis via Human IL-2 ELISA kit (eBioscience, San Diego, Calif. USA).” left out

MDS patients = test: Hematologic response of MDS patients versus pre-treatment CD28 expression; format: in vivo, human; conditions: 10 mg 21 of 28 days, 16 weeks, 7 NR and 4 R
Experimental: MDS patients (n=100) were consented at H. Lee Moffitt Cancer Center in Tampa, Fla. to participate in a peripheral blood collection protocol approved by the University of South Florida Institutional Review Board from 2004-2009. All patients signed University of South Florida Institutional Review Board approved informed consents for the collection of 40 ml of peripheral blood in heparin tubes. Samples were obtained from each patient at various times from 2004-2009 for immune monitoring studies and all cells were frozen in liquid nitrogen. Twenty-one of these patients had samples that were collected within 4 weeks prior to LEN treatment. LEN was administered at a dose of 10 mg for 21 out of a 28-day cycle for four cycles. All patients were evaluated for hematologic response after 16 weeks according to 2006 International Working Group Criteria (IWG). […]
Naïve and memory CD4 and CD8 T-cell subtypes in MDS patients and healthy donors were detected after surface staining with anti-CD3-PE-Cy7, anti-CD8-PerCP-Cy5.5, anti-CD45RA-FITC, anti-CD27-APC, anti-CD28-PE, and DAPI (all from BD Biosciences, San Jose, Calif. USA). […] Samples were run on an LSRII flow cytometer (BD Pharmingen) and populations were analyzed by FlowJo Software (Tree Star Inc., Ashland, Oreg. USA).

CD28 [6] = test: CD28 internalization and re-expression by flow cytometry after co-stimulation; format: cell-based, human
Experimental: as §1

[7] = test system: pCREB binding to the IL-2 promoter; test: Chromatin immunoprecipitation of pCREB at the IL-2 promoter; format: cell-based, human; conditions: anti-CD3 alone, 18 hours, 10 μM LEN
Experimental: Cells were isolated, fixed, lysed, and sonicated before chromatin-immunoprecipitation, as previously described (Smith M A, et al. J Biol Chem 2011 Mar. 11; 286(10):7893-904). Briefly, after stimulation and drug treatment, primary T-cells were treated with 1% formaldehyde for 10 min for cross-linking, followed by cell and nuclear lysis (50 mM Tris, pH 8.1, 10 mM EDTA, 1% SDS, 0.5 mM PMSF) and shearing. Chromatin was immunoprecipitated using 5 μg anti-phospho-CREB antibody (Millipore, Temecula, Calif. USA) and protein A/G beads (Santa Cruz Biotechnology Inc., Santa Cruz, Calif. USA). Immunoprecipitated chromatin was collected and washed sequentially with TSE buffer (20 mM Tris, pH 8.1, 50 mM NaCl, 2 mM EDTA, 0.1% SDS, 1.0% Triton X-100) and LiCl buffer (100 mM Tris, pH 8.1, 50 mM LiCl, 1% Nonidet P-40, 1% sodium deoxycholic acid, 1 mM EDTA). DNA was then eluted from the beads with 50 mM NaHCO3 containing 1% SDS and cross-linking reversed at 65° C. overnight followed by proteinase K treatment. DNA was then purified via QIAquick PCR purification kit (Qiagen, Germantown, Md. USA). For each sample, 4 μl DNA was amplified and measured using Sybr Green (Bio-Rad, Inc., Hercules, Calif. USA). Primers used to amplify the pCREB binding site-180 upstream of the transcription start site were: forward: 5′-[…]-3′ (SEQ ID NO:1) and reverse: 5′-[…]-3′ (SEQ ID NO:2).

purified human T-cells [8] = test: T-cell proliferation by BrdU incorporation, anti-CD3 stimulated; format: cell-based; conditions: increasing anti-CD3, 10 μM LEN
Description: as §2, with “Purified T-cells (1×10^6/ml) were added to the coated 96-well plates in a 200 μl volume for 48 hours at 37° C. In some instances, 1.0 μg/ml anti-CD28 was added for co-stimulation.” left out
Proliferation was determined after in vitro activation by bromodeoxyuridine (BrdU) incorporation (BrdU flow kit, BD Biosciences, San Diego, Calif. USA). […] The percentage of BrdU positive cells from each population was analyzed using Flow-Jo Software (TreeStar Inc, Ashland, Oreg. USA.).

[9] = test system: CD8^+CD28^+ and CD8^+CD28^− T-cells; test: BrdU proliferation of sorted CD8^+CD28^+ and CD8^+CD28^− T-cells; format: cell-based, human; conditions: 3 days, 10 μM LEN
Experimental: Proliferation was determined after in vitro activation by bromodeoxyuridine (BrdU) incorporation (BrdU flow kit, BD Biosciences, San Diego, Calif. USA). […] of BrdU was added during the last 45 min of T-cell stimulation. BrdU pulsed T-cells were harvested and stained with anti-CD4-PE and anti-CD8-PE-Cy-5 (BD Pharmingen, San Jose, Calif. USA). The cells were then fixed and permeabilized with BD Cytofix/Cytoperm buffer and incubated with DNase for 1 hour at 37° C. Cells were stained with anti-BrdU-FITC antibody before flow cytometry analysis on an LSRII flow cytometer (BD Biosciences, San Jose, Calif. USA). The percentage of BrdU positive cells from each population was analyzed using Flow-Jo Software (TreeStar Inc, Ashland, Oreg. USA.).
as §5

[10] = species comparison; cited from earlier work

SMILES: Nc1cccc2c1CN(C1CCC(=O)NC1=O)C2=O (stereo not drawn) [LEN, Lenalidomide]
- CD28 surface expression (MFI) compared to DMSO (CD28 [1]): amplifies this anti-CD3 response
- LEN-induced IL-2 release, fold increase (CD28^+ T-cells; control siRNA): 7.5 fold
- LEN-induced IL-2 release, fold increase (CD28^+ T-cells; siRNA-CD28 knockdown): 4.9 fold
- IL-2 production in TCR-stimulated murine T-cells (murine T-cells; anti-CD3 alone): failed to induce IL-2 production
- anti-CD28 signaling response (IL-2) in murine T-cells (murine T-cells; anti-CD3 plus anti-CD28): failed to intensify the anti-CD28 signaling response
- stability of stock solutions on storage [2]: variable loss in activity
- IL-2 mRNA compared to DMSO (IL-2 gene): dose-dependent increase in IL-2 mRNA
- elaboration of IL-2 in CD8^+CD28^− T-cells (CD8^+CD28^− T-cells): completely abolished in CD8^+CD28^− T-cells with no response to LEN
- CD28 mRNA (CD28 [3]): did not significantly increase
- total protein expression of CD28 (CD28 [4]): did not significantly increase
- IL-2 production with increasing concentrations of LEN (purified human T-cells [5]; fixed 5 μg/ml anti-CD3 alone): dose-dependency of IL-2 production
- increase in IL-2 production (purified human T-cells [5]; human T-cells, anti-CD3 plus anti-CD28 co-stimulation, average, p<0.001): 6 fold
- production of IL-2 compared to DMSO (purified human T-cells [5]; human T-cells, increasing anti-CD3, no anti-CD28, 10 μM LEN): increased the production of IL-2
- hematologic response (IWG) in relation to pre-treatment CD28^+ T-cells (MDS patients): correlation between accumulation of CD28^− T-cells and resistance to LEN
- CD28 re-expression (CD28 [6]; after anti-CD3 plus anti-CD28 stimulation): re-expression was slightly increased
- ligand-induced CD28 internalization (CD28 [6]; anti-CD3 plus anti-CD28 stimulation): does not impair ligand-induced internalization
- binding of pCREB to the IL-2 promoter compared to DMSO [7]: increases binding of pCREB to the IL-2 promoter
- proliferating cells (% BrdU positive) compared to DMSO (purified human T-cells [8]): stimulated more cells to proliferate in a dose dependent fashion
- proliferation of CD8^+CD28^+ T-cells ([9]; anti-CD3 stimulation alone): increased proliferation of CD8^+CD28^+ T-cells in a dose-dependent fashion
- proliferation of CD8^+CD28^− T-cells compared to DMSO ([9]; anti-CD3 stimulation): displayed no response to LEN

SMILES: O=C1CCC(N2C(=O)c3ccccc3C2=O)C(=O)N1 (stereo not drawn) [Thalidomide]
- teratogenic activity [10]: teratogenic activity only in humans, rabbits, chickens and zebrafish, but not in rodents
